In patent US7435805B2, “O-alkyl macrolide and azalide derivatives and regioselective process for their preparation” (GlaxpSmithkline Istrazivacki, priority 2003, dated 2008) one finds MIC data, which are given here for four molecules.

Converted amounts (≈) assume the structure as drawn.

In one assay the test system is S. aureus B0329. The assay can be described thus: microtiter broth serial dilution MIC, S. aureus B0329. It counts as cell-based, Staphylococcus aureus. The note with it: unit assumed. An excerpt:
(§1) In particular, the compounds of the invention may be active against strains of Staphylococcus aureus, Streptococcus pneumoniae, Moraxella catarrhalis, Streptococcus pyogenes, or Haemophilus influenzae. […] (Table 1.)

For a further assay, the system named is S. pneumoniae B0541. The assay can be described thus: microtiter broth serial dilution MIC, S. pneumoniae B0541. It is filed as cell-based, Streptococcus pneumoniae. The note with it: unit assumed.
From the text: as §1

The subject of a further assay is S. pneumoniae B0326 M. Nature of the assay: microtiter broth serial dilution MIC, S. pneumoniae B0326 M. It counts as cell-based, Streptococcus pneumoniae. The note with it: unit assumed.
From the text: as §1

The test system of a further assay is S. pyogenes B0542. The assay can be described thus: microtiter broth serial dilution MIC, S. pyogenes B0542. The note with it: unit assumed. It is filed as cell-based, Streptococcus pyogenes.
From the text: as §1

Another assay has as its system S. pyogenes B0543 iMLS. The assay can be described thus: microtiter broth serial dilution MIC, S. pyogenes B0543 iMLS. It counts as cell-based, Streptococcus pyogenes. As to conditions: S. pyogenes B0543 iMLS (inducible resistant strain); unit assumed.
From the text: as §1

For a further assay, the system named is S. pyogenes B0545 M. The assay can be described thus: microtiter broth serial dilution MIC, S. pyogenes B0545 M. It counts as cell-based, Streptococcus pyogenes. As to conditions: S. pyogenes B0545 M (efflux resistant strain); unit assumed.
From the text: as §1

Another assay has as its system M. catarrhalis B0324. The assay can be described thus: microtiter broth serial dilution MIC, M. catarrhalis B0324. The note with it: unit assumed. It is filed as cell-based, Moraxella catarrhalis.
From the text: as §1

A further assay has as its system H. influenzae B0529. The assay can be described thus: microtiter broth serial dilution MIC, H. influenzae B0529. It is filed as cell-based, Haemophilus influenzae. The note with it: unit assumed.
From the text: as §1

The test system of the next assay is E. coli B0001. The assay can be described thus: microtiter broth serial dilution MIC, E. coli B0001. The note with it: unit assumed. It is filed as cell-based.
From the text: as §1

8a-Aza-8a-homoerythromycin: the MIC against S. aureus B0329 came out at 2 mg/L; against S. pneumoniae B0541, 0.125 mg/L; in the assay on S. pneumoniae B0326 M, 64 mg/L; against S. pyogenes B0542, 0.25 mg/L; against S. pyogenes B0543 iMLS, 8 mg/L; with S. pyogenes B0545 M it was 32 mg/L. For the same molecule, the figures for the MIC with M. catarrhalis B0324, against H. influenzae B0529 and in the assay on E. coli B0001 were 2 mg/L, 1 mg/L and 16 mg/L, respectively.

For the molecule `CC[C@H]1OC(=O)[C@H](C)[C@@H](O[C@H]2C[C@@](C)(OC)[C@@H](O)[C@H](C)O2)[C@H](C)[C@@H](O[C@@H]2O[C@H](C)C[C@H](N(C)C)[C@H]2O)[C@](C)(O)C[C@@H](C)CN[C@H](C)[C@@H](O)[C@]1(C)O` [9-Deoxo-9a-aza-9a-homoerythromycin], the MIC came out at 4 mg/L (≈ 5.44 µM) against S. aureus B0329; 0.25 mg/L (≈ 0.34 µM) in the assay with S. pneumoniae B0541; 16 mg/L (≈ 21.8 µM) against S. pneumoniae B0326 M; 0.125 mg/L (≈ 0.17 µM) in the assay with S. pyogenes B0542; 32 mg/L (≈ 43.5 µM) against S. pyogenes B0543 iMLS; 16 mg/L (≈ 21.8 µM) against S. pyogenes B0545 M. For the same molecule, the values for the MIC against M. catarrhalis B0324, with H. influenzae B0529 and in the assay with E. coli B0001 were 1 mg/L (≈ 1.36 µM), 0.5 mg/L (≈ 0.68 µM) and 4 mg/L (≈ 5.44 µM), respectively.

On to `CC[C@H]1OC(=O)[C@H](C)[C@@H](O[C@H]2C[C@@](C)(OC)[C@@H](O)[C@H](C)O2)[C@H](C)[C@@H](O[C@@H]2O[C@H](C)C[C@H](N(C)C)[C@H]2O)[C@](C)(O)C[C@@H](C)CN[C@H](C)[C@@H](OC)[C@]1(C)O` [Ex. 3, 11-O-METHYL-9-DEOZO-9A-AZA-9A-HOMOERYTHROMYCIN], for which the MIC with S. aureus B0329 is 1 mg/L (≈ 1.34 µM); against S. pneumoniae B0541, 0.125 mg/L (≈ 0.167 µM); with S. pneumoniae B0326 M it was 8 mg/L (≈ 10.7 µM); against S. pyogenes B0542 it was 0.125 mg/L (≈ 0.167 µM); with S. pyogenes B0543 iMLS, 16 mg/L (≈ 21.4 µM); in the assay on S. pyogenes B0545 M, 4 mg/L (≈ 5.34 µM). For the same molecule, the MIC in the assay with M. catarrhalis B0324 was found to be 0.125 mg/L (≈ 0.167 µM); in the assay on H. influenzae B0529, 0.5 mg/L (≈ 0.668 µM); in the assay on E. coli B0001, 2 mg/L (≈ 2.67 µM).

Consider `CC[C@H]1OC(=O)[C@H](C)[C@@H](O[C@H]2C[C@@](C)(OC)[C@@H](O)[C@H](C)O2)[C@H](C)[C@@H](O[C@@H]2O[C@H](C)C[C@H](N(C)C)[C@H]2O)[C@](C)(O)C[C@@H](C)NC(=O)[C@H](C)[C@@H](OC)[C@]1(C)O` [Ex. 5, 11-O-METHYL-8A-AZA-8A-HOMOERYTHROMYCIN], for which the MIC was determined as 0.5 mg/L (≈ 0.655 µM) with S. aureus B0329; 0.125 mg/L (≈ 0.164 µM) against S. pneumoniae B0541; 32 mg/L (≈ 41.9 µM) in the assay on S. pneumoniae B0326 M; 0.125 mg/L (≈ 0.164 µM) with S. pyogenes B0542; 4 mg/L (≈ 5.24 µM) with S. pyogenes B0543 iMLS; 16 mg/L (≈ 21 µM) in the assay with S. pyogenes B0545 M. The MIC with M. catarrhalis B0324 was determined as 0.125 mg/L (≈ 0.164 µM); with H. influenzae B0529, 1 mg/L (≈ 1.31 µM); in the assay with E. coli B0001, 16 mg/L (≈ 21 µM).
